System: adult patients with persistent negative symptoms of schizophrenia
Type: in vivo, human
From the text: To assess changes in cognitive impairment associated with schizophrenia (CIAS), secondary endpoints included the 12-week change from baseline in the Brief Assessment of Cognition in Schizophrenia (BACS) composite score, a measure of cognition across multiple domains, and the Schizophrenia Cognition Rating Scale (SCORS) score, a measure of day-to-day cognitive functioning requiring input from an adult informant. Secondary endpoints were not corrected for multiplicity.
The BACS is specifically designed to measure treatment-related improvements in cognition and includes alternate forms. BACS is a reliable and sensitive measure of cognitive function in schizophrenia. The BACS is a cognition assessment battery that assesses 6 domains of cognitive function found to be consistently impaired in schizophrenia: verbal memory; working memory; motor speed; attention; executive functions; and verbal fluency. The primary measure from each test of the BACS is standardized by creating T-scores whereby the mean of the test session of a matched reference healthy participant is set to 50 and the standard deviation set to 10.

[1] = 125 mg once daily, MMRM, preliminary analysis
[2] = 125 mg once daily, preliminary analysis

O=c1[nH]nc(CCc2ccc(C(F)(F)F)cc2)cc1O [Compound (I), luvadaxistat]
BACS Attention Cognition Domain, Difference from Placebo for Week 6, LS Mean (SE) (50 mg, Week 6, MMRM): −0.1 (1.12)
BACS Executive Functions Cognition Domain, Adjusted Change from Baseline to Week 6, LS Mean (SE) (50 mg, Week 6, MMRM): 0.9 (1.22)
BACS Executive Functions Cognition Domain, Difference from Placebo for Week 6, LS Mean (SE) (50 mg, Week 6, MMRM): 2.1 (1.53)
BACS Verbal Fluency Cognition Domain, Adjusted Change from Baseline to Week 6, LS Mean (SE) (50 mg, Week 6, MMRM): −0.3 (0.70)
BACS Verbal Fluency Cognition Domain, Difference from Placebo for Week 6, LS Mean (SE) (50 mg, Week 6, MMRM): −0.5 (0.87)
BACS Attention Cognition Domain, Change from Baseline to Week 12, Mean (SD) (50 mg, Week 12): 2.2 (6.95)
BACS Attention Cognition Domain, Change from Baseline to Week 12, Median (50 mg, Week 12): 2.0
BACS Attention Cognition Domain, Week 12, Mean (SD) (50 mg, Week 12): 38.0 (11.83)
BACS Attention Cognition Domain, Week 12, Median (50 mg, Week 12): 39.0
BACS Executive Functions Cognition Domain, Change from Baseline to Week 12, Mean (SD) (50 mg, Week 12): 2.6 (7.73)
BACS Executive Functions Cognition Domain, Change from Baseline to Week 12, Median (50 mg, Week 12): 1.0
BACS Executive Functions Cognition Domain, Week 12, Mean (SD) (50 mg, Week 12): 46.4 (10.55)
BACS Executive Functions Cognition Domain, Week 12, Median (50 mg, Week 12): 49.5
BACS Verbal Fluency Cognition Domain, Change from Baseline to Week 12, Mean (SD) (50 mg, Week 12): 1.5 (5.87)
BACS Verbal Fluency Cognition Domain, Change from Baseline to Week 12, Median (50 mg, Week 12): 0.0
BACS Verbal Fluency Cognition Domain, Week 12, Mean (SD) (50 mg, Week 12): 41.8 (10.41)
BACS Verbal Fluency Cognition Domain, Week 12, Median (50 mg, Week 12): 40.0
BACS Attention Cognition Domain, Adjusted Change from Baseline to Week 12, LS Mean (SE) (50 mg, Week 12, MMRM): 2.3 (1.02)
BACS Attention Cognition Domain, Difference from Placebo for Week 12, LS Mean (SE) (50 mg, Week 12, MMRM): 0.4 (1.28)
BACS Executive Functions Cognition Domain, Adjusted Change from Baseline to Week 12, LS Mean (SE) (50 mg, Week 12, MMRM): 1.8 (1.09)
BACS Executive Functions Cognition Domain, Difference from Placebo for Week 12, LS Mean (SE) (50 mg, Week 12, MMRM): 1.2 (1.36)
BACS Verbal Fluency Cognition Domain, Adjusted Change from Baseline to Week 12, LS Mean (SE) (50 mg, Week 12, MMRM): 1.2 (0.85)
BACS Verbal Fluency Cognition Domain, Difference from Placebo for Week 12, LS Mean (SE) (50 mg, Week 12, MMRM): 0.2 (1.07)
BACS Verbal Memory Cognition Domain, Difference from Placebo for Week 6, LS Mean (SE) (125 mg once daily, MMRM, one-sided unadjusted p 0.025, preliminary analysis): 2.5 (1.29)
BACS Composite Score, Difference from Placebo for Week 6, LS Mean (SE) (125 mg once daily, MMRM, one-sided unadjusted p 0.038, preliminary analysis): 1.8 (1.02)
BACS Motor Speed Cognition Domain, Difference from Placebo for Week 12, LS Mean (SE) (125 mg once daily, MMRM, one-sided unadjusted p 0.067, preliminary analysis): 1.8 (1.18)
BACS Composite Score, Difference from Placebo for Week 12, LS Mean (SE) (125 mg once daily, MMRM, one-sided unadjusted p 0.095, preliminary analysis): 1.5 (1.16)
BACS Verbal Memory Cognition Domain, Difference from Placebo for Week 12, LS Mean (SE) (125 mg once daily, MMRM, one-sided unadjusted p 0.164, preliminary analysis): 1.4 (1.44)
BACS Working Memory Cognition Domain, Difference from Placebo for Week 6, LS Mean (SE) (125 mg once daily, MMRM, one-sided unadjusted p 0.239, preliminary analysis): 0.8 (1.16)
BACS Working Memory Cognition Domain, Difference from Placebo for Week 12, LS Mean (SE) (125 mg once daily, MMRM, one-sided unadjusted p 0.406, preliminary analysis): 0.3 (1.35)
BACS Motor Speed Cognition Domain, Difference from Placebo for Week 6, LS Mean (SE) (125 mg once daily, MMRM, one-sided unadjusted p 0.753, preliminary analysis): −0.9 (1.26)
BACS Composite Score, Adjusted Change from Baseline to Week 6, LS Mean (SE) [1]: 1.4 (0.80)
BACS Composite Score, Adjusted Change from Baseline to Week 12, LS Mean (SE) [1]: 2.3 (0.91)
BACS Motor Speed Cognition Domain, Adjusted Change from Baseline to Week 6, LS Mean (SE) [1]: −1.0 (0.98)
BACS Motor Speed Cognition Domain, Adjusted Change from Baseline to Week 12, LS Mean (SE) [1]: 1.3 (0.93)
BACS Verbal Memory Cognition Domain, Adjusted Change from Baseline to Week 6, LS Mean (SE) [1]: 1.2 (1.01)
BACS Verbal Memory Cognition Domain, Adjusted Change from Baseline to Week 12, LS Mean (SE) [1]: 0.8 (1.13)
BACS Working Memory Cognition Domain, Adjusted Change from Baseline to Week 6, LS Mean (SE) [1]: 0.9 (0.90)
BACS Working Memory Cognition Domain, Adjusted Change from Baseline to Week 12, LS Mean (SE) [1]: 1.0 (1.06)
BACS Composite Score, Change from Baseline to Week 6, Mean (SD) [2]: 1.9 (4.95)
BACS Composite Score, Change from Baseline to Week 6, Median [2]: 2.0
BACS Composite Score, Change from Baseline to Week 12, Mean (SD) [2]: 2.9 (6.54)
BACS Composite Score, Change from Baseline to Week 12, Median [2]: 3.5
BACS Composite Score, Week 6, Mean (SD) [2]: 35.6 (14.55)
BACS Composite Score, Week 6, Median [2]: 37.0
BACS Composite Score, Week 12, Mean (SD) [2]: 37.1 (15.02)
BACS Composite Score, Week 12, Median [2]: 38.5
BACS Motor Speed Cognition Domain, Change from Baseline to Week 6, Mean (SD) [2]: 0.0 (5.97)
BACS Motor Speed Cognition Domain, Change from Baseline to Week 6, Median [2]: 0.5
BACS Motor Speed Cognition Domain, Change from Baseline to Week 12, Mean (SD) [2]: 2.5 (7.60)
BACS Motor Speed Cognition Domain, Change from Baseline to Week 12, Median [2]: 2.0
BACS Motor Speed Cognition Domain, Week 6, Mean (SD) [2]: 39.6 (10.80)
BACS Motor Speed Cognition Domain, Week 6, Median [2]: 39.0
BACS Motor Speed Cognition Domain, Week 12, Mean (SD) [2]: 42.6 (10.35)
BACS Motor Speed Cognition Domain, Week 12, Median [2]: 42.0
BACS Verbal Memory Cognition Domain, Change from Baseline to Week 6, Mean (SD) [2]: 1.8 (7.71)
BACS Verbal Memory Cognition Domain, Change from Baseline to Week 6, Median [2]: 2.5
BACS Verbal Memory Cognition Domain, Change from Baseline to Week 12, Mean (SD) [2]: 1.6 (8.07)
BACS Verbal Memory Cognition Domain, Change from Baseline to Week 12, Median [2]: 1.0
BACS Verbal Memory Cognition Domain, Week 6, Mean (SD) [2]: 42.4 (12.62)
BACS Verbal Memory Cognition Domain, Week 6, Median [2]: 42.0
BACS Verbal Memory Cognition Domain, Week 12, Mean (SD) [2]: 42.3 (13.54)
BACS Verbal Memory Cognition Domain, Week 12, Median [2]: 42.5
BACS Working Memory Cognition Domain, Change from Baseline to Week 6, Mean (SD) [2]: 1.5 (5.89)
